Source: patent EP0808833B1, “Vitamin D3 analogs” (F. HOFFMANN-LA ROCHE AG, priority 1996, dated 1997)
Where two headings read alike, the source gives them in different places. Marks after values point to notes of the source that are not given here.

What was measured:
[1] = Calcium tolerance test in mice; type: in vivo; conditions: highest tolerated dose = dose resulting in zero weight gain, daily subcutaneous administration for 4 consecutive days; for MTD: mouse, in vivo, sc, read-out: HTD
Description: Calcium tolerance test in mice
Profound changes in calcium homeostasis strongly affect the weight development of mice. Mice (25-30 g body weight) received daily subcutaneous administrations of the compound for 4 consecutive days. Body weight was registered just before and at the end of a […] treatment period. The "highest tolerated dose" (HTD) is the dose which results in zero weight gain during this treatment period.

HL-60 cells = test: HL-60 cell differentiation (NBT reduction); type: cell-based; conditions: Homo sapiens, HL-60, 72 h, concentration leading to 50% of maximal differentiation achieved with 100-1000 nM calcitriol, 3 days, read-out: ED50 (the source's name)
HaCaT cells = test: Inhibition of keratinocyte proliferation (3H-thymidine uptake, HaCaT); type: cell-based; conditions: Homo sapiens, 3H-thymidine incorporation after 6 days of culture in presence of the test compound
[2] = tested on: T47-D breast carcinoma cells; test: Antiproliferative activity in T47-D breast carcinoma cells (MTT); type: cell-based; conditions: Homo sapiens, T47D, 72 h
sebaceous cells = test: Inhibition of human sebocyte proliferation in vitro; type: cell-based; conditions: amount of compound necessary to inhibit proliferation of sebaceous cells by 50% as compared to a vehicle-treated culture, tested at 10^-6, 10^-7 and 10^-8 M, read-out: ED50 (the source's name)
Experimental: Inhibition of Human Sebocyte Proliferation In Vitro
The cells were cultured in Iscove's medium containing 10% fetal calf serum and 4 µg/ml dexamethasone on a layer of growth-arrested 3T3 mouse fibroblasts. Cells were plated in medium without the test compound and then given test compound in fresh medium 24-48 hours after the initial plating. The cultures were given fresh medium, containing the test compound, every 48 hours. On the day of harvesting, the cultures were rinsed with 0.03% EDTA (ethylenediamine tetroacetic acid) in PBS (phosphate-buffered saline), to remove only the 3T3 fibroblasts, followed by incubation in 0.05% trypsin/0.03% EDTA. The cells were suspended, mixed vigorously to prepare a single cell suspension and counted in a hemocytometer.
Stock solutions of compounds were made up as 10^-2 M solutions in degassed 100% ethanol and stored at -20°C in the dark. During experimental use, the solutions, which have been aliquoted, were brought to room temperature and used by diluting directly into complete medium to the appropriate concentration.

[3] = tested on: UVB-Induced Dermal Damage; test: Repair of UVB-induced dermal damage in the hairless mouse; type: in vivo, Hairless mice; conditions: treated three times per week after UVB irradiation
Experimental: Repair of UVB-Induced Dermal Damage in the Hairless Mouse by Compounds of Formula I Hairless mice (female, HRS/J strain, Jackson Labs, 5-7 weeks old at the start of the experiments) were housed in yellow light and irradiated three times per week with a bank of 8 Westinghouse Sunlamps (FS72T12 HO, peak irradiance at 313 nm) placed about 20 cm above the animals. UVB output was measured on an International Light Research Radiometer, model IL 1700, using a SEE240 detector. With this setup, the lamp output was approximately 3.5 mW/cm^2 and the time of exposure for 0.06 J/cm^2 was about 17 seconds; 1 MED is approximately 0.03 J/cm^2. The precise dose was delivered by a IL […] Phototherapy Exposure Control. Daily doses were 0.03 J/cm^2 for two weeks, 0.06 J/cm^2 for two weeks and 0.08 J/cm^2 thereafter, until a total dose of approximately 4 J/cm^2 was accumulated. To effect repair of the dermal damage, the UVB irradiation was discontinued and the animals were divided into groups of approximately eight and treated three times per week with various concentrations of the vitamin D analogs dissolved in ethanol. All dosing was done under yellow light. […] In these studies, since the width of the zone varies considerably, the area of the zone on a standard length of histological section is measured by image analysis. Compounds are tested at three doses and an approximate ED50 calculated.

Row | Compound | HTD [1] | EC50 (sebaceous cells) | other results
1 | 1,25-Dihydroxy-16,23Z-diene-26,27-hexafluoro-20-epi-19-norcholecalciferol | 3.0 µg/kg | – | –
2 | C=C1/C(=C\C=C2/CCC[C@]3(C)C([C@@H](C)C/C=C/C(O)(C(F)(F)F)C(F)(F)F)=CC[C@@H]23)C[C@@H](O)C[C@@H]1O [1,25-Dihydroxy-16,23E-diene-26,27-hexafluoro-20-epi-cholecalciferol] | – | – | EC50 (HL-60 cells): 0.37 nM; IC50 (HaCaT cells): 0.7 nM; IC50 [2]: 10 nM; MTD [1]: 2.5 µg/kg; EC50 (sebaceous cells; Homo sapiens): < 10 nM; Repair Zone ([3]; Dose 0.1 µg, P < 0.001 vs vehicle control): 0.0282±0.0092*** mm^2; Repair Zone ([3]; Dose 0.5 µg, P < 0.05 vs vehicle control): 0.0102±0.0067* mm^2
3 | C=C1C(=CC=C2CCCC3(C)C(C(C)C/C=C\C(O)(C(F)(F)F)C(F)(F)F)=CCC23)CC(O)CC1O (stereo not drawn) [1,25-Dihydroxy-16,23Z-diene-26,27-hexafluoro-20-epi-cholecalciferol] | 2.5 µg/kg | – | –
4 | C=C1C(=CC=C2CCCC3(C)C(C(C)CCCC(C)(C)O)=CCC23)CC(O)CC1O (stereo not drawn) [1,25-Dihydroxy-16-ene-20-epi-cholecalciferol] | 30 µg/kg | < 1 nM | –
5 | C=C1C(=CC=C2CCCC3(C)C(C(C)CC#CC(C)(C)O)=CCC23)CC(O)CC1O (stereo not drawn) [1,25-Dihydroxy-16-ene-23-yne-20-epi-cholecalciferol] | 100 µg/kg | 50 nM | –
6 | C=C1/C(=C\C=C2/CCC[C@]3(C)C([C@@H](C)CC#CC(O)(C(F)(F)F)C(F)(F)F)=CC[C@@H]23)C[C@@H](O)C[C@@H]1O [1,25-Dihydroxy-16-ene-23-yne-26,27-hexafluoro-20-epi-cholecalciferol] | 6.0 µg/kg | < 10 nM | –
7 | C=C1/C(=C\C=C2/CCC[C@]3(C)[C@@H]([C@H](C)CCCC(C)(C)O)CC[C@@H]23)C[C@@H](O)C[C@@H]1O [1,25-Dihydroxy-cholecalciferol, reference compound] | – | – | MTD [1]: 0.5 µg/kg
8 | C=C1C(=CC=C2CCCC3(C)C(C(C)C/C=C\C(O)(C(F)(F)F)C(F)(F)F)=CCC23)CC(O)CC1F (stereo not drawn) [1α-Fluoro-25-hydroxy-16,23Z-diene-26,27-hexafluoro-20-epi-cholecalciferol] | 8.0 µg/kg | – | –
